Literature values in patent publication US11304902B2, “Pharmaceutical compositions, preparation and uses thereof” (CURADIGM SAS, priority 2014, dated 2022).
“Also recorded” adds a separate entry of the source.

What was measured:
Conditions in all cases: human CYP enzyme
CYP4F12 = biological target: T1, CYP4F12 (Homo sapiens, UniProt Q9HCS2)
T1 sequence (Q9HCS2 1-524): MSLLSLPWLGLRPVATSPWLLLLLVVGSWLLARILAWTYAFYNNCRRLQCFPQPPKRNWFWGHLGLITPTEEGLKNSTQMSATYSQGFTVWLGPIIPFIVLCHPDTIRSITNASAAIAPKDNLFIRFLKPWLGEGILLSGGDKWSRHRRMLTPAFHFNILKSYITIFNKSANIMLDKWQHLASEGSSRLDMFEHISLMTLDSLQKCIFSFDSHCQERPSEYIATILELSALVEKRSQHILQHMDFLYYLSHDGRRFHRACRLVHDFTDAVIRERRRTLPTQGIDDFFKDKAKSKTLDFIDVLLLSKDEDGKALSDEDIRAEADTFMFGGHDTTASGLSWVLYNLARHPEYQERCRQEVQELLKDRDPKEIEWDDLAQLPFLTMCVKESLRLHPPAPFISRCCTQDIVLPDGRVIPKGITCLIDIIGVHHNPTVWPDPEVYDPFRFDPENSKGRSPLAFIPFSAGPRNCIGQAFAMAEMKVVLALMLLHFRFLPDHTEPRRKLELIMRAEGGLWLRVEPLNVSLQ

CYP4A11 = biological target: T2, CYP4A11 (Homo sapiens, UniProt Q02928)
T2 sequence (Q02928 5-519): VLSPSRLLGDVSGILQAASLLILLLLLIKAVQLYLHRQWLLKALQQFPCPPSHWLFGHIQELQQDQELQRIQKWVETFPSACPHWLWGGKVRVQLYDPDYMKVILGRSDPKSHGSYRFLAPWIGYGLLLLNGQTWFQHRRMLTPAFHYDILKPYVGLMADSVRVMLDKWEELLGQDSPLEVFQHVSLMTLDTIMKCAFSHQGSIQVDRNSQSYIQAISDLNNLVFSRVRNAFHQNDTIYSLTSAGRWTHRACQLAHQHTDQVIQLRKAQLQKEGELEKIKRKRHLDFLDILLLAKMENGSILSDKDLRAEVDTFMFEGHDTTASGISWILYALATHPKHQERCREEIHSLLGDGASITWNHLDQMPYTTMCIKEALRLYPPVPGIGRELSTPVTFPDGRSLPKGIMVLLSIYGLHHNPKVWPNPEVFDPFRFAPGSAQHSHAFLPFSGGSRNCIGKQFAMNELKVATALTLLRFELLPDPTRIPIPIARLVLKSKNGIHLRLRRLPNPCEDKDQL

CYP2C19 = CYP2C19 (Homo sapiens, UniProt P33261)
CYP4F8 = biological target: T3, CYP4F8 (Homo sapiens, UniProt P98187)
T3 sequence (P98187 1-520): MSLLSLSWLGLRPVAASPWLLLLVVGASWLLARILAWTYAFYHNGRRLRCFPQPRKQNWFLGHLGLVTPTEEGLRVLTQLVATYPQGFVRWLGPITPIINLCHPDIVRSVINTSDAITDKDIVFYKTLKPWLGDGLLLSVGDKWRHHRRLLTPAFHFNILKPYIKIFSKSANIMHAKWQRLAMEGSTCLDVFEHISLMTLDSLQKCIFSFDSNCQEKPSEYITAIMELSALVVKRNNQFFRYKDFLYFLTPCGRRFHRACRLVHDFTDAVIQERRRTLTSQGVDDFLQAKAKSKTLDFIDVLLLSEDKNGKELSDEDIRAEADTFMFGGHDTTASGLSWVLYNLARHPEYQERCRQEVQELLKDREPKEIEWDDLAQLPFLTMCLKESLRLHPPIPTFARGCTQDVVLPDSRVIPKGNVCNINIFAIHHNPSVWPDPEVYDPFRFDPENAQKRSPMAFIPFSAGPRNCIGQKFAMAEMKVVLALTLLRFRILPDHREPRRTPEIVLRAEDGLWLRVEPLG

CYP2D6 = CYP2D6 (Homo sapiens, UniProt P10635)
CYP2A6 = biological target: T4, CYP2A6 (Homo sapiens, UniProt P11509)
T4 sequence (P11509 1-494): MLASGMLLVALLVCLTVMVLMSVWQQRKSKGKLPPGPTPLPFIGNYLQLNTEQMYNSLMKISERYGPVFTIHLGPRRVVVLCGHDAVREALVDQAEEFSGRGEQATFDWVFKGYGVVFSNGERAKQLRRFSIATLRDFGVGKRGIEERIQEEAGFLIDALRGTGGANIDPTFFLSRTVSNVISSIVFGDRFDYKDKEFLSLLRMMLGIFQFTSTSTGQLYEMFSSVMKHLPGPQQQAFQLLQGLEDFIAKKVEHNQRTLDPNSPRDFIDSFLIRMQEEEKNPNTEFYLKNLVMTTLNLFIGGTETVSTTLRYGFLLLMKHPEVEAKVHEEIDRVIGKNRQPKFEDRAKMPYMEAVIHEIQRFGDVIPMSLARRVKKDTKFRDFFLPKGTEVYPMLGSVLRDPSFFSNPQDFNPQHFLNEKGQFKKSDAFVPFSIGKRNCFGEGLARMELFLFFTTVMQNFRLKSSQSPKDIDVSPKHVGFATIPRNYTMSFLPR

CYP2C9 = CYP2C9 (Homo sapiens, UniProt P11712)
CYP2C9, sequence (P11712 whole entry): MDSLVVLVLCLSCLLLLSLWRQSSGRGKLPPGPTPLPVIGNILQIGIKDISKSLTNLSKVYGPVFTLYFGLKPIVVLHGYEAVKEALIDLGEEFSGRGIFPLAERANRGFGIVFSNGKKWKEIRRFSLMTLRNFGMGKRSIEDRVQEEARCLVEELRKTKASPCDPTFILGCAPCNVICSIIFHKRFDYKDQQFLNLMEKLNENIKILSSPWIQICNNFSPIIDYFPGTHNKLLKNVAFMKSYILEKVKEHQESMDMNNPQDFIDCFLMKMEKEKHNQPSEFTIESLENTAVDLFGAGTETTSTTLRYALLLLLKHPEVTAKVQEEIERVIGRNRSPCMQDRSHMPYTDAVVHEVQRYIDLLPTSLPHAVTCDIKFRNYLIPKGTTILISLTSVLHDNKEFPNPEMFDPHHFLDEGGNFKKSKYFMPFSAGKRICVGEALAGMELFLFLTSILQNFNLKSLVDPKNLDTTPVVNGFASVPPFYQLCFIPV

CYP2D6, sequence (P10635 whole entry): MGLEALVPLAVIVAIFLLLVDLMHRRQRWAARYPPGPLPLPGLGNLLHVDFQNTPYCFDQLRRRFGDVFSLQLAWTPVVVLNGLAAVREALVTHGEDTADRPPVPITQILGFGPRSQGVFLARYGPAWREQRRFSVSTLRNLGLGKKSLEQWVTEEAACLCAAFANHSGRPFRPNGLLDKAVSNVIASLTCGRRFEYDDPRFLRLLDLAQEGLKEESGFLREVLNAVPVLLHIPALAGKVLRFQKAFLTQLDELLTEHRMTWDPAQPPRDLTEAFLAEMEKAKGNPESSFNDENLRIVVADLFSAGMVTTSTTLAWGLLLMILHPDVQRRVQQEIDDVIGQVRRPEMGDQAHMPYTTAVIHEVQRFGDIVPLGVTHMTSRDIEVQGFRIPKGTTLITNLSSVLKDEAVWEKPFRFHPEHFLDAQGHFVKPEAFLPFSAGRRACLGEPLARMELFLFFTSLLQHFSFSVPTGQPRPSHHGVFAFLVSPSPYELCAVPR
CYP2C19, sequence (P33261 whole entry): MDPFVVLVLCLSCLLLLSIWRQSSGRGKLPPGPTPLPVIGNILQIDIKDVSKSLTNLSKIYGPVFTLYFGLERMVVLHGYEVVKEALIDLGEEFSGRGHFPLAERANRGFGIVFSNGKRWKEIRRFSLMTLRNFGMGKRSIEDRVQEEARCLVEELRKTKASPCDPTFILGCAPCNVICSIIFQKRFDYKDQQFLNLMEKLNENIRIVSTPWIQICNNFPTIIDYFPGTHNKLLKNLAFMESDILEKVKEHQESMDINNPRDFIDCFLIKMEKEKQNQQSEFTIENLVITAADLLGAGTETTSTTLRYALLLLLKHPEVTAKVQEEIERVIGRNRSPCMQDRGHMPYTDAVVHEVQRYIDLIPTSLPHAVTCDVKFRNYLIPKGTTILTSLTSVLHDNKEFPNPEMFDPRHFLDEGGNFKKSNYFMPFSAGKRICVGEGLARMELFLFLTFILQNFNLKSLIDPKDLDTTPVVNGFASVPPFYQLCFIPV

- role towards CYP4F12 (substrate / inhibitor / inducer) (CYP4F12): Substrate
- role towards CYP4A11 (substrate / inhibitor / inducer) (CYP4A11): Substrate
- role towards CYP2C19 (substrate / inhibitor / inducer) (CYP2C19): Substrate
- role towards CYP4F8 (substrate / inhibitor / inducer) (CYP4F8): Substrate
- role towards CYP2D6 (substrate / inhibitor / inducer) (CYP2D6): Inhibitor
- role towards CYP2A6 (substrate / inhibitor / inducer) (CYP2A6): Substrate
- role towards CYP2C9 (substrate / inhibitor / inducer) (CYP2C9): Inhibitor; also recorded: Substrate
SMILES: CCCCC/C=C\C/C=C\C/C=C\C/C=C\CCCC(=O)O [Arachidonic acid, arachidonic acid]
